These compounds were tested on Human RSV-A (“Long” strain) (assay: RSV in vitro cytoprotection assay (CPE, ATPlite) in HEp-2 cells). Conditions: human respiratory syncytial virus, 96 h; HEp-2 cells, 4-day incubation, ATPlite readout; read-out: Human RSV-A (“Long” strain) EC50.
Type: cell-based
Text: RSV is a single stranded negative sense RNA virus that causes respiratory tract infections which can be dangerous to infants, the elderly, and immunosuppressed individuals. Currently there is no vaccine, and therapeutic options are both costly and of limited effectiveness. These approved treatments are Ribavirin, and Palivizumab/Synagis (a monoclonal antibody). RSV has two genotypes, A and B, which differ primarily in the structure of the virus' surface “G” attachment protein. Our current primary screen focuses on RSV-A and uses an in vitro cytoprotection assay where compounds are added in 2-fold dilutions to cells which are then subjected to fully replicative viral particles. Cell viability is measured several days later along with separate measurements of compound cytotoxicity. This report focuses on the results of our most recent screening of compounds.
HEp-2 cells, (originally derived from tumors grown in irradiated-cortisonised weanling rats that had been injected with epidermoid carcinoma tissue from a person's larynx, but later found to be indistinguishable from HeLa cells by PCR DNA analysis), were used for the culturing of genotype A, “Long” strain RSV. Flasks were inoculated with RSV and viral stocks were collected once cytopathic effect (CPE) was greater than 90%. Viral stocks in 25% sucrose media were snap frozen using liquid nitrogen to increase viral stability. Viral stock titers were quantified by tissue culture infectious dose 50% (TCID50) using 8,000 cells per well and 3-fold viral dilutions across a 96-well plate, cultured for 4 days.
Following extensive parameter testing, the final assay is run as follows: HEp-2 cells are seeded into the inner 60 wells of a 96-well plate at 8,000 cells per well in a volume of 50 μL using Growth Media (DMEM without phenol red, 1% L-Glut, 1% Penn/Strep, 1% nonessential amino acids, 10% FBS). 2-Fold serial dilutions of control and test compounds are added to the wells in duplicate in a total volume of 25 μL. Viral stock is then added to the wells in a volume of […] the total volume of each well to 100 μL. Each 96-well plate has a control column of 6 wells with cells and virus but no compound (negative control, max CPE), a column with cells but no compound or virus (positive control, minimum CPE), and a column with no cells or virus or compound (background plate/reagent control). The control wells with cells but no virus are given an additional 25 uL of growth media containing an equal quantity of sucrose as those wells receiving the viral stock in order to keep consistent in media and volume conditions. The outer wells of the plate are filled with 125 μL of growth media to act as a thermal and evaporative moat around the test wells. Following a 4-day incubation period, the plates are read using ATPlite (50 uL added per well), which quantifies the amount of ATP (a measure of cell health) present in each well. Assay plates are read using the Envision luminometer. In parallel, cytotoxicity is examined on an additional 96-well plate treated in an identical manner, but substituting the 25 μL of viral stock for 25 μL of growth media. […] EC50 ranges are as follows: A<0.01 μM; B 0.01-0.05 μM; C>0.05 μM.

`Cc1cnc(N2CC3(CCOCC3)C2)c(C(=O)Nc2ccc(C(=O)N3CCc4cc(-c5nnc(C)o5)sc4-c4cc(F)c(F)cc43)cc2)c1` [Example 193] was tested. Which EC50 did it give?
Its EC50 is < 10 nM.

With `Cc1cnc(N2CC3(CCOCC3)C2)c(C(=O)Nc2ccc(C(=O)N3CCc4cc(-c5cccnn5)sc4-c4ccc(F)cc43)cc2)c1` [Example 190] as the compound, how does the EC50 read?
Its EC50 is < 10 nM.

How did the EC50 turn out when `Cc1cnc(N2CC3(CCOCC3)C2)c(C(=O)Nc2ccc(C(=O)N3CCc4cc(NC(=O)c5c(F)cccc5F)sc4-c4ccccc43)cc2)c1` [Example 275] was run?
The EC50 was < 10 nM.

Which EC50 does the source give for `O=C(Nc1ncccc1Cl)c1cc2c(s1)-c1ccc(F)cc1N(C(=O)c1ccc(NC(=O)c3cc4c(nc3N3CC5(CCOCC5)C3)CCC4)cc1)CC2` [Example 140] here?
Its EC50 is < 10 nM.

For `Cc1cnc(N2CC3(CCOCC3)C2)c(C(=O)Nc2ccc(C(=O)N3CCc4cc(C(=O)Nc5c(Cl)cccc5Cl)sc4-c4ccc(F)cc43)cc2)c1` [Example 9], which EC50 is on record?
The EC50 was < 10 nM.

With `Cc1cnc(N2CC3(CCOCC3)C2)c(C(=O)Nc2ccc(C(=O)N3CCc4cc(NC(=O)c5ccccc5)sc4-c4ccccc43)cc2)c1` [Example 284] as the compound, how does the EC50 read?
Its EC50 is < 10 nM.

Which EC50 does the source give for `O=C(Nc1c(F)cccc1F)c1cc2c(s1)-c1ccc(F)cc1N(C(=O)c1ccc(NC(=O)c3cccnc3-c3c[nH]c4ccncc34)cc1)CC2` [Example 64] here?
The EC50 was > 50 nM.

Which EC50 does the source give for `Cc1cnc(N2CC3(CCOCC3)C2)c(C(=O)Nc2ccc(C(=O)N3CCc4cc(NC(=O)c5c(F)cccc5Cl)sc4-c4ccccc43)cc2)c1` [Example 282] here?
Its EC50 is < 10 nM.

`O=C(Nc1c(F)cc(F)cc1Cl)c1cc2c(s1)-c1ccc(F)cc1N(C(=O)c1ccc(NC(=O)c3cc(-c4cccs4)cnc3N3CC4(CCOCC4)C3)cc1)CC2` [Example 28] was tested. Which EC50 did it give?
The EC50 was 10 to 50 nM.

With `Cc1cnc(N2CC3(CCOCC3)C2)c(C(=O)Nc2ccc(C(=O)N3CCc4c(sc(-c5nc6cccc(Cl)c6[nH]5)c4F)-c4ccccc43)cc2)c1` [Example 202] as the compound, how does the EC50 read?
Its EC50 is 10 to 50 nM.

`Cc1cnc(N2CC3(CCOCC3)C2)c(C(=O)Nc2ccc(C(=O)N3CCc4c(sc(-c5nc6ccccc6[nH]5)c4F)-c4ccccc43)cc2)c1` [Example 201] was tested. Which EC50 did it give?
The EC50 was < 10 nM.

With `Cc1cnc(N2CC3(CCOCC3)C2)c(C(=O)Nc2ccc(C(=O)N3CCc4cc(-c5ncc(C)s5)sc4-c4ccc(F)cc43)cc2)c1` [Example 151] as the compound, how does the EC50 read?
The EC50 was < 10 nM.

`Cc1cnc(N2CC3(CCOCC3)C2)c(C(=O)Nc2ccc(C(=O)N3CCc4cc(-c5nccs5)sc4-c4ccc(F)cc43)cc2)c1` [Example 154] was tested. Which EC50 did it give?
The EC50 was < 10 nM.

How did the EC50 turn out when `Cc1cnc(N2CC3(CCOCC3)C2)c(C(=O)Nc2ccc(C(=O)N3CCc4cc(C(=O)N[C@H]5CCOC5)sc4-c4ccc(F)cc43)cc2)c1` [Example 124] was run?
Its EC50 is < 10 nM.

For `Cc1ccc(C(=O)Nc2ccc(C(=O)N3CCc4cc(-c5nc6cccc(F)c6[nH]5)sc4-c4ccc(F)cc43)cc2)c(N2CC3(CCOCC3)C2)n1` [Example 149], which EC50 is on record?
Its EC50 is < 10 nM.

With `Cc1cnc(N2CC3(CCOCC3)C2)c(C(=O)Nc2ccc(C(=O)N3CCc4cc(NS(=O)(=O)c5ccccc5F)sc4-c4ccccc43)cc2)c1` [Example 290] as the compound, how does the EC50 read?
Its EC50 is > 50 nM.

How did the EC50 turn out when `Cc1cnc(N2CC3(CCOCC3)C2)c(C(=O)Nc2ccc(C(=O)N3CCc4cc(-c5c[nH]nc5C5CC5)sc4-c4ccc(F)cc43)cc2)c1` [Example 170] was run?
The EC50 was < 10 nM.

Which EC50 does the source give for `Cc1cnc(N2CC3(CCOCC3)C2)c(C(=O)Nc2ccc(C(=O)N3CCc4c(sc(-c5nc6ccccc6[nH]5)c4C)-c4ccccc43)cc2)c1` [Example 273] here?
Its EC50 is 10 to 50 nM.

`Cc1cnc(N2CC3(CCOCC3)C2)c(C(=O)Nc2ccc(C(=O)N3CCc4c(sc(C(=O)Nc5ncc(C)s5)c4F)-c4ccccc43)cc2)c1` [Example 223] was tested. Which EC50 did it give?
The EC50 was 10 to 50 nM.

How did the EC50 turn out when `CCOCCN(C)c1ncccc1C(=O)Nc1ccc(C(=O)N2CCc3cc(C(=O)Nc4c(F)cccc4F)sc3-c3ccc(F)cc32)cc1` [Example 55] was run?
The EC50 was > 50 nM.

How did the EC50 turn out when `Cc1ccc(C(=O)Nc2ccc(C(=O)N3CCc4c(sc(NC(=O)c5c(C)cccc5F)c4F)-c4ccccc43)cc2)c(N2CC3(CCOCC3)C2)n1` [Example 308] was run?
Its EC50 is 10 to 50 nM.

`Cc1cnc(N2CC3(CCOCC3)C2)c(C(=O)Nc2ccc(C(=O)N3CCc4cc(NC(=O)OC(C)C)sc4-c4ccccc43)cc2)c1` [Example 297] was tested. Which EC50 did it give?
Its EC50 is < 10 nM.

With `Cc1ccc(C(=O)Nc2ccc(C(=O)N3CCc4cc(NC(=O)OC5CCC5)sc4-c4ccccc43)cc2)c(N2CC3(CCOCC3)C2)n1` [Example 298] as the compound, how does the EC50 read?
The EC50 was 10 to 50 nM.

Which EC50 does the source give for `Cc1cnc(N2CC3(CCOCC3)C2)c(C(=O)Nc2ccc(C(=O)N3CCc4cc(-c5c[nH]c6ccc(Cl)cc56)sc4-c4ccc(F)cc43)cc2)c1` [Example 174] here?
The EC50 was > 50 nM.

`COc1ccc(C(=O)Nc2ccc(C(=O)N3CCc4cc(C(=O)Nc5c(F)cc(F)cc5Cl)sc4-c4ccc(F)cc43)cc2)c(N2CC3(CCOCC3)C2)n1` [Example 24] was tested. Which EC50 did it give?
The EC50 was 10 to 50 nM.

`Cc1cnc(NC(=O)c2sc3c(c2F)CCN(C(=O)c2ccc(NC(=O)c4cc(C)cnc4N4CC5(CCOCC5)C4)cc2)c2ccccc2-3)c(F)c1` [Example 230] was tested. Which EC50 did it give?
Its EC50 is < 10 nM.

With `Cc1cnc(N2CC3(CCOCC3)C2)c(C(=O)Nc2ccc(C(=O)N3CCc4cc(-c5nc6ccccc6[nH]5)oc4-c4ccc(F)cc43)cc2)c1` [Example 243] as the compound, how does the EC50 read?
Its EC50 is < 10 nM.

How did the EC50 turn out when `O=C(Nc1c(F)cc(F)cc1F)c1cc2c(o1)-c1ccccc1N(C(=O)c1ccc(NC(=O)c3cc4c(nc3N3CC5(CCOCC5)C3)CCC4)cc1)CC2` [Example 253] was run?
The EC50 was < 10 nM.

`O=C(Nc1c(F)cccc1F)c1cc2c(o1)-c1ccc(F)cc1N(C(=O)c1ccc(NC(=O)c3cc4c(nc3N3CC5(CCOCC5)C3)CCCC4)cc1)CC2` [Example 241] was tested. Which EC50 did it give?
Its EC50 is < 10 nM.

How did the EC50 turn out when `O=C(Nc1ccc(C(=O)N2CCc3cc(-c4nc5ccccc5[nH]4)sc3-c3ccc(F)cc32)cc1)c1cccnc1N1CC2(CCOCC2)C1` [Example 38] was run?
Its EC50 is 10 to 50 nM.

For `O=C(Nc1c(F)cc(F)cc1Cl)c1nc2c(s1)-c1ccccc1N(C(=O)c1ccc(NC(=O)c3cccnc3N3CC4(CCOCC4)C3)cc1)CC2` [Example 106], which EC50 is on record?
Its EC50 is 10 to 50 nM.

For `Cc1cnc(N2CC3(CCOCC3)C2)c(C(=O)Nc2ccc(C(=O)N3CCc4c(sc(C(=O)Nc5cccc(F)c5)c4F)-c4ccccc43)cc2)c1` [Example 210], which EC50 is on record?
The EC50 was < 10 nM.

With `Cc1cnc(N2CC3(CCOCC3)C2)c(C(=O)Nc2ccc(C(=O)N3CCc4cc(-c5nc6ccccc6[nH]5)sc4-c4ccc(F)cc43)cc2)c1` [Example 3] as the compound, how does the EC50 read?
Its EC50 is < 10 nM.

`O=C(Nc1c(F)cccc1Cl)c1cc2c(s1)-c1ccc(F)cc1N(C(=O)c1ccc(NC(=O)c3cc4c(nc3N3CC5(CCOCC5)C3)CCOC4)cc1)CC2` [Example 137] was tested. Which EC50 did it give?
Its EC50 is < 10 nM.

Which EC50 does the source give for `Cc1cnc(N2CC3(CCOCC3)C2)c(C(=O)Nc2ccc(C(=O)N3CCc4c(sc(C(=O)Nc5c(C)cccc5C)c4Cl)-c4ccccc43)cc2)c1` [Example 271] here?
Its EC50 is 10 to 50 nM.

`Cc1cnc(N2CC3(CCOCC3)C2)c(C(=O)Nc2ccc(C(=O)N3CCc4c(sc(NC(=O)c5ccccc5F)c4F)-c4ccccc43)cc2)c1` [Example 307] was tested. Which EC50 did it give?
The EC50 was < 10 nM.

For `Cc1cnc(N2CC3(CCOCC3)C2)c(C(=O)Nc2ccc(C(=O)N3CCc4c(sc(C(=O)Nc5cccc(C(F)(F)F)n5)c4F)-c4ccccc43)cc2)c1` [Example 232], which EC50 is on record?
The EC50 was > 50 nM.

With `Cc1cccc(F)c1NC(=O)c1cc2c(o1)-c1ccccc1N(C(=O)c1ccc(NC(=O)c3cc4c(nc3N3CC5(CCOCC5)C3)CCC4)cc1)CC2` [Example 250] as the compound, how does the EC50 read?
Its EC50 is < 10 nM.

Which EC50 does the source give for `O=C(Nc1c(F)cccc1F)c1cc2c(s1)-c1cc(C(F)(F)F)ccc1N(C(=O)c1ccc(NC(=O)c3cccnc3N3CC4(CCOCC4)C3)cc1)CC2` [Example 87] here?
The EC50 was 10 to 50 nM.

For `Cc1cnc(N2CC3(CCOCC3)C2)c(C(=O)Nc2ccc(C(=O)N3CCc4cc(NS(=O)(=O)c5c(C)cccc5F)sc4-c4ccccc43)cc2)c1` [Example 289], which EC50 is on record?
Its EC50 is > 50 nM.

`O=C(Nc1c(F)cccc1F)c1cc2c(o1)-c1ccc(F)cc1N(C(=O)c1ccc(NC(=O)c3cc4c(nc3N3CC5(CCOCC5)C3)CCC4)cc1)CC2` [Example 239] was tested. Which EC50 did it give?
Its EC50 is < 10 nM.

For `Cc1cnc(N2CC3(CCOCC3)C2)c(C(=O)Nc2ccc(C(=O)N3CCc4cc(C(=O)Nc5ncccc5F)sc4-c4ccc(F)cc43)cc2)c1` [Example 118], which EC50 is on record?
The EC50 was < 10 nM.

For `Cc1ccc(C(=O)Nc2ccc(C(=O)N3CCc4cc(C(=O)Nc5c(C)cccc5F)oc4-c4ccccc43)cc2)c(N2CC3(CCOCC3)C2)n1` [Example 256], which EC50 is on record?
The EC50 was < 10 nM.

Same assay, conditions: human respiratory syncytial virus, HEp-2, 96 h, read-out: Human RSV-A (“Long” strain) EC50

Which EC50 does the source give for `Cc1ccc(C(=O)Nc2ccc(C(=O)N3CCc4cc(NC(=O)Oc5ccccc5)sc4-c4ccccc43)cc2)c(N2CC3(CCOCC3)C2)n1` [Example 302] here?
The EC50 was > 50 nM.

— patent US11091501B2, “Heterocyclic compounds as RSV inhibitors” (Enanta Pharmaceuticals, Inc., priority 2017, dated 2021)
